Consider five compounds from patent US20040242896A1, “Azole compounds as anti-fungal agents” (priority 2001, published 2004).

The test system of one assay is Candida albicans1162. The assay can be described thus: MIC determination (NCCLS M27A), Candida albicans 1162. It counts as cell-based.
Assay [1] concerns Aspergillus fumigatus Si-I. Briefly: MIC determination (NCCLS M38P), Aspergillus fumigatus Si-I. It counts as cell-based.
In assay [2] the test system is Paecilomyces variotti 22319 QC). Briefly: MIC determination (NCCLS M38P), Paecilomyces variotti 22319 (QC). It counts as cell-based.
The test system of another assay is Candida glabrata 90030. The assay can be described thus: MIC determination (NCCLS M27A), Candida glabrata 90030. It counts as cell-based.
The subject of another assay is Candida albicans Y-01-19. The assay can be described thus: MIC determination (NCCLS M27A), Candida albicans Y-01-19. It counts as cell-based.
In assay [3] the test system is Cryptococcus neoformans I. The assay can be described thus: MIC determination (NCCLS M27A), Cryptococcus neoformans I. The class given is cell-based.
In another assay the test system is Candida krusei 766.1. Briefly: MIC determination (NCCLS M27A), Candida krusei 766.1. The class given is cell-based.
Another assay relates to Candida albicans 1122. The assay can be described thus: MIC determination (NCCLS M27A), Candida albicans 1122. The class given is cell-based.
Assay [4] concerns Candida parapsilosis 22019 (QC). Briefly: MIC determination (NCCLS M27A), Candida parapsilosis 22019 (QC). The class given is cell-based.
The test system of the next assay is Candida krusei 6258 (QC). Briefly: MIC determination (NCCLS M27A), Candida krusei 6258 (QC). It counts as cell-based.
For a further assay, the system named is Histoplasma capsulatum. Briefly: microbe, parasite or virus in culture. It counts as cell-based.
The subject of assay [5] is Aspergillus fumigatus 1008. Briefly: MIC determination (NCCLS M38P), Aspergillus fumigatus 1008. The class given is cell-based.
The test system of assay [6] is Cryptococcus neoformans M 106. The assay can be described thus: MIC determination (NCCLS M27A), Cryptococcus neoformans M 106. The class given is cell-based.
Another assay concerns Candida tropicalis 750. The assay can be described thus: MIC determination (NCCLS M27A), Candida tropicalis 750. The class given is cell-based.
The test system of assay [7] is isolates of Aspergillus species. The settings on record: background statement; cited from earlier work.
For assay [8], the target named is lanosterol 14α-de-methylase. The settings on record: the target enzyme in the fungus, background statement; cited from earlier work.
Where [9] appears, read: Candida albicans1162, RPMI 1640, MOPS pH 7.
Where [10] appears, read: Aspergillus fumigatus Si-I, RPMI 1640, MOPS pH 7.
Where [11] appears, read: Candida albicans Y-01-19, RPMI 1640, MOPS pH 7.
Where [12] appears, read: Candida krusei 766.1, RPMI 1640, MOPS pH 7.
Where [13] appears, read: Aspergillus fumigatus 1008, RPMI 1640, MOPS pH 7.
The mark [14] stands for this setting: Cryptococcus neoformans M 106, RPMI 1640, MOPS pH 7.
Setting [15] is: RPMI 1640, MOPS pH 7, read-out: MIC.
Setting [16] is: Nakaseomyces glabratus, RPMI 1640, MOPS pH 7, read-out: MIC.
Where [17] appears, read: Pichia kudriavzevii, RPMI 1640, MOPS pH 7, read-out: MIC.

Structures are written as SMILES. ≈ marks a conversion by molar mass, not a printed value. Like-named read-outs stand apart in the source and are kept apart here. Where only a bound is given, the exact number is not on record here.

As a reminder, the IC50 is the concentration that inhibits the measured activity by half.

For `C[C@@H](n1ncn(-c2ccc(OCc3ccc(Cl)cc3Cl)cc2)c1=S)[C@](O)(Cn1cncn1)c1ccc(F)cc1F` [compound 1, 2-[(1R,2R)-2 (2,4-Difluorophenyl)-2-hydroxy-1-methyl-3-(1H-1,2,4-triazol-1-yl)propyl]-4-[4-(2,4-dichlorobenzyloxy)phenyl]-3-(2H, 4H)-1,2,4-thiotriazolone], the MIC entry is “≧64 μg/ml” in the assay on Candida albicans1162 (setting [9]); less than 0.125 µg/mL in assay [1] (setting [10]); less than 0.125 µg/mL in assay [2] (RPMI 1640, MOPS pH 7); 32 µg/mL (≈ 53 µM) in the assay on Candida glabrata 90030 (RPMI 1640, MOPS pH 7); “≦0.125 μg/ml” with Candida albicans Y-01-19 (setting [11]); less than 0.03 µg/mL in assay [3] (RPMI 1640, MOPS pH 7). The MIC against Candida krusei 766.1 (setting [12]) was 0.5 µg/mL (≈ 0.829 µM); against Candida albicans 1122 (RPMI 1640, MOPS pH 7) it was less than 0.125 µg/mL; in [4] (RPMI 1640, MOPS pH 7), less than 0.125 µg/mL; in the assay on Candida krusei 6258 (QC) (RPMI 1640, MOPS pH 7), less than 0.125 µg/mL; against Histoplasma capsulatum (RPMI 1640, MOPS pH 7), 0.5 µg/mL (≈ 0.829 µM); in assay [5] (setting [13]) it was less than 0.125 µg/mL. Also, the MIC is less than 0.03 µg/mL in [6] (setting [14]) and less than 0.125 µg/mL against Candida tropicalis 750 (RPMI 1640, MOPS pH 7).

Take `OC(Cn1cncn1)(Cn1cncn1)c1ccc(F)cc1F` [Fluconazole]: the MIC was greater than 128 µg/mL against Candida albicans1162 (Candida, ALBICANS1162, pH 7); greater than 128 µg/mL in assay [1] (Aspergillus fumigatus, pH 7); 2 µg/mL (≈ 6.53 µM) in [2] (setting [15]); 64 µg/mL (≈ 209 µM) in the assay with Candida glabrata 90030 (setting [16]); 8 µg/mL (≈ 26.1 µM) in the assay on Candida albicans Y-01-19 (Y0119, Candida albicans Y-01-19, RPMI 1640, MOPS pH 7, read-out: MIC); 0.5 µg/mL (≈ 1.63 µM) in [3] (setting [15]). The MIC with Candida krusei 766.1 (Pichia kudriavzevii, 766.1, pH 7) is 128 µg/mL (≈ 418 µM); with Candida albicans 1122 (setting [15]) it was 0.5 µg/mL (≈ 1.63 µM); in assay [4] (setting [15]), 2 µg/mL (≈ 6.53 µM); in the assay with Candida krusei 6258 (QC) (setting [17]) it was 32 µg/mL (≈ 104 µM); in the assay on Histoplasma capsulatum (pH 7), 2 µg/mL (≈ 6.53 µM); in [5] (Aspergillus fumigatus, 1008, pH 7), greater than 128 µg/mL. In addition, the MIC is 2 µg/mL (≈ 6.53 µM) in assay [6] (M106, Cryptococcus neoformans M 106, RPMI 1640, MOPS pH 7, read-out: MIC) and 0.25 µg/mL (≈ 0.816 µM) in the assay on Candida tropicalis 750 (setting [15]). Moreover, the “minimum inhibitory concentration (MIC) values” in assay [7] is 400 µg/mL (≈ 1310 µM). The 50% inhibitory concentration (IC50) in assay [8] is 4.8 µM.

With `CCC(C)n1ncn(-c2ccc(N3CCN(c4ccc(OCC5COC(Cn6cncn6)(c6ccc(Cl)cc6Cl)O5)cc4)CC3)cc2)c1=O` (stereo not shown) [Itraconazole], the MIC in the assay on Candida albicans1162 (Candida albicans1162, RPMI 1640, MOPS pH 7, read-out: MIC) was 32 µg/mL (≈ 45.3 µM); in assay [1] (Aspergillus fumigatus Si-I, RPMI 1640, MOPS pH 7, read-out: MIC), 0.25 µg/mL (≈ 0.354 µM); in assay [2] (setting [15]), 0.03 µg/mL (≈ 0.0425 µM); in the assay on Candida glabrata 90030 (setting [16]), 2 µg/mL (≈ 2.83 µM); in the assay with Candida albicans Y-01-19 (Candida albicans, Y0119, pH 7), 0.125 µg/mL (≈ 0.177 µM); in assay [3] (setting [15]), 0.016 µg/mL (≈ 0.0227 µM). Besides, the MIC in the assay with Candida krusei 766.1 (Pichia kudriavzevii, Candida krusei 766.1, RPMI 1640, MOPS pH 7, read-out: MIC) is 0.25 µg/mL (≈ 0.354 µM); in the assay on Candida albicans 1122 (setting [15]) it was 0.03 µg/mL (≈ 0.0425 µM); in [4] (setting [15]) it was 0.06 µg/mL (≈ 0.085 µM); with Candida krusei 6258 (QC) (setting [17]), 0.5 µg/mL (≈ 0.709 µM); with Histoplasma capsulatum (pH 7) it was 0.25 µg/mL (≈ 0.354 µM); in [5] (Aspergillus fumigatus 1008, RPMI 1640, MOPS pH 7, read-out: MIC) it was 0.25 µg/mL (≈ 0.354 µM). In addition, the MIC in [6] (Cryptococcus neoformans, M106, pH 7) is 0.125 µg/mL (≈ 0.177 µM); with Candida tropicalis 750 (setting [15]), 0.03 µg/mL (≈ 0.0425 µM).

On to `C[C@@H]1[C@H](O)[C@@H](C)/C=C/C=C/C=C/C=C/C=C/C=C/C=C/[C@H](O[C@@H]2O[C@H](C)[C@@H](O)[C@H](N)[C@@H]2O)C[C@@H]2O[C@](O)(C[C@@H](O)C[C@@H](O)[C@H](O)CC[C@@H](O)C[C@@H](O)CC(=O)O[C@H]1C)C[C@H](O)[C@H]2C(=O)O` [Amphotericin B], for which the MIC is 0.06 µg/mL (≈ 0.0649 µM) against Candida albicans1162 (setting [9]); 0.125 µg/mL (≈ 0.135 µM) in assay [1] (setting [10]); 0.06 µg/mL (≈ 0.0649 µM) in [2] (RPMI 1640, MOPS pH 7); 0.125 µg/mL (≈ 0.135 µM) in the assay with Candida glabrata 90030 (RPMI 1640, MOPS pH 7); 0.125 µg/mL (≈ 0.135 µM) in the assay with Candida albicans Y-01-19 (setting [11]); 0.06 µg/mL (≈ 0.0649 µM) in assay [3] (RPMI 1640, MOPS pH 7). Also, the MIC amounted to 0.25 µg/mL (≈ 0.271 µM) against Candida krusei 766.1 (setting [12]); 0.125 µg/mL (≈ 0.135 µM) against Candida albicans 1122 (RPMI 1640, MOPS pH 7); 0.25 µg/mL (≈ 0.271 µM) in [4] (RPMI 1640, MOPS pH 7); 0.25 µg/mL (≈ 0.271 µM) against Candida krusei 6258 (QC) (RPMI 1640, MOPS pH 7); 0.25 µg/mL (≈ 0.271 µM) in the assay on Histoplasma capsulatum (RPMI 1640, MOPS pH 7); 0.125 µg/mL (≈ 0.135 µM) in assay [5] (setting [13]). For the same compound, the MIC is 0.125 µg/mL (≈ 0.135 µM) in assay [6] (setting [14]) and 0.125 µg/mL (≈ 0.135 µM) with Candida tropicalis 750 (RPMI 1640, MOPS pH 7).

`C[C@@H](n1ncn(-c2ccc(OCc3ccccc3)cc2)c1=S)[C@](O)(Cn1cncn1)c1ccc(F)cc1F` [Compound No. 2, 2-[(1R,2R)-2 (2,4-Difluorophenyl)-2-hydroxy-1-methyl-3-(1H-1,2,4-triazol-1-yl)propyl]-4-(4-benzyloxyphenyl)-3-(2H, 4H)-1,2,4-thiotriazolone]: the MIC came out at 0.016 µg/mL (≈ 0.0299 µM) in [1] (setting [10]); 0.06 µg/mL (≈ 0.112 µM) in assay [2] (RPMI 1640, MOPS pH 7); 0.125 µg/mL (≈ 0.234 µM) in the assay with Candida glabrata 90030 (RPMI 1640, MOPS pH 7); 0.03 µg/mL (≈ 0.0561 µM) with Candida albicans Y-01-19 (setting [11]); 0.00025 µg/mL (≈ 0.000468 µM) in assay [3] (RPMI 1640, MOPS pH 7); 0.125 µg/mL (≈ 0.234 µM) in the assay on Candida krusei 766.1 (setting [12]). The MIC in [4] (RPMI 1640, MOPS pH 7) was found to be 0.002 µg/mL (≈ 0.00374 µM); in the assay with Candida krusei 6258 (QC) (RPMI 1640, MOPS pH 7) it was 0.125 µg/mL (≈ 0.234 µM); against Histoplasma capsulatum (RPMI 1640, MOPS pH 7), 0.03 µg/mL (≈ 0.0561 µM); in assay [5] (setting [13]), 0.125 µg/mL (≈ 0.234 µM); in assay [6] (setting [14]) it was 0.00025 µg/mL (≈ 0.000468 µM); with Candida tropicalis 750 (RPMI 1640, MOPS pH 7), 0.002 µg/mL (≈ 0.00374 µM).
